Laboratory results from patent US20220296611A1, “PHARMACEUTICAL COMPOSITION FOR PREVENTING OR TREATING CANCER” (SEOUL NATIONAL UNIVERSITY R&DB FOUNDATION, priority 2019, published 2022).

Columns and labels:
[1] = system: HeLa cells; assay: Comparison of cell viability of HeLa cells (MTT assay); assay type: cell-based; conditions: 24 h and 48 h after treatment; TUDCA 1000 μM, fenbendazole 1.2 μM, doxorubicin 10 μM
Procedure: 3. MTT Assay As illustrated in the flow chart shown in FIG. 1, the degree of cytotoxicity was evaluated through MTT assay. (1) HeLa cells are cervical cancer cell lines. In this experiment, experimental groups were divided as follows: specifically, a group in which HeLa cells are not treated, that is, no treatment group (NT); a doxorubicin-treated group (Doxo); a fenbendazole-treated group (Fen); a TUDCA treated group (TUDCA); and a group treated with a mixture of fenbendazole and TUDCA (Fen+TUDCA), and cell viability was compared over time (24 h, 48 h) after treatment. […] Further, the mixture of fenbendazole and TUDCA was prepared by mixing both compounds with the above concentrations at the same dose. Further, all treatment groups were treated with the corresponding compounds at the same dose.

[2] = system: Hepa cells (Hepa1c1c7); assay: Comparison of cell viability of Hepa cells (MTT assay, cell number counting); assay type: cell-based, Murin; conditions: 48 h
Procedure: After culturing cells, the cells were resuspended in a fresh medium. After obtaining 200 μL of the cell suspension, […] of […] with a dilution factor of 2× was added thereto.
A hemocytometer equipped with a coverslip was prepared, and each chamber was filled with the suspension, followed by counting the number of cells. A specific counting method is as follows.
1) Live cells/ml=No. of cells counted/No. of squares counted×Dilution factor×1000
2) Dead cells/ml=No. of dead cells/No. of squares counted×Dilution factor×100
3) Percentage Viability=No. of live cells/Total No. of cells×100
As illustrated in the flow chart shown in FIG. 1, the degree of cytotoxicity was evaluated through MTT assay.
(1) In the present invention, all liver cancer cell lines were Murin hepatoma cell lines (Hepa1c1c7), hereinafter, referred to as Hepa cells. In this experiment, the following definitions were applied: no treatment group (NT); a fenbendazole treatment group (Fen); a TUDCA 200 μmol treatment group (TUDCA 200); a TUDCA 500 μmol treatment group (TUDCA 500); a TUDCA 1000 μmol treatment group (TUDCA 1000); a mixture of 1.2 μmol fenbendazole and 200 μmol TUDCA (1.2+200); a mixture of 1.2 μmol fenbendazole and 500 μmol TUDCA (1.2+500); a mixture of 1.2 μmol fenbendazole and 1000 μmol TUDCA (1.2+1000), respectively. […]

Structure (SMILES): C[C@H](CCC(=O)NCCS(=O)(=O)O)[C@H]1CC[C@H]2[C@@H]3[C@@H](O)C[C@@H]4C[C@H](O)CC[C@]4(C)[C@H]3CC[C@]12C [TUDCA, tauroursodeoxycholic acid]
- apoptotic effects (cell viability of HeLa cells) compared to doxorubicin [1]: more excellent apoptotic effects at 24 h and 48 h after treatment than doxorubicin
- apoptosis effect depending on the concentration of TUDCA [2]: the higher the concentration of TUDCA, the better the apoptosis effect at 48 h

Structure (SMILES): COC(=O)Nc1nc2ccc(Sc3ccccc3)cc2[nH]1 [fenbendazole]
- apoptotic effects (cell viability of HeLa cells) compared to doxorubicin [1]: more excellent apoptotic effects at 24 h and 48 h after treatment than doxorubicin
